How the values were obtained:
Adenosylhomocysteinase [1] = target: T1, Adenosylhomocysteinase (Homo sapiens, UniProt P23526)
Adenosylhomocysteinase [2] = target: Adenosylhomocysteinase (Mus musculus, UniProt P50247); experiment: biochemical
Vaccinia virus = settings: l929
Adenosylhomocysteinase [3] = target: T1, Adenosylhomocysteinase; remark: listed apart in the source

Sequence of Adenosylhomocysteinase (Mus musculus, UniProt P50247) (P50247 whole entry): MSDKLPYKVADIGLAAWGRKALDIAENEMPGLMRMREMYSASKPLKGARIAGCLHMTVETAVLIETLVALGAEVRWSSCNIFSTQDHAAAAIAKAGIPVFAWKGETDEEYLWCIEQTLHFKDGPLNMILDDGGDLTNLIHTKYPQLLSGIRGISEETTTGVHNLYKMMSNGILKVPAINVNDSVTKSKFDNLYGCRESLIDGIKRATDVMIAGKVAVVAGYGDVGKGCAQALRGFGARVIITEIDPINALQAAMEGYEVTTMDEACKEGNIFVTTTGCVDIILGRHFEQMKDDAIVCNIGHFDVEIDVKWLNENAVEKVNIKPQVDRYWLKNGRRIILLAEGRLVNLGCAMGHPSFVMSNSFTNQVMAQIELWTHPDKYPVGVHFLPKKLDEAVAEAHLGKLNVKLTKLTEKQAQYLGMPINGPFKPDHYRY
T1 sequence (P23526 whole entry): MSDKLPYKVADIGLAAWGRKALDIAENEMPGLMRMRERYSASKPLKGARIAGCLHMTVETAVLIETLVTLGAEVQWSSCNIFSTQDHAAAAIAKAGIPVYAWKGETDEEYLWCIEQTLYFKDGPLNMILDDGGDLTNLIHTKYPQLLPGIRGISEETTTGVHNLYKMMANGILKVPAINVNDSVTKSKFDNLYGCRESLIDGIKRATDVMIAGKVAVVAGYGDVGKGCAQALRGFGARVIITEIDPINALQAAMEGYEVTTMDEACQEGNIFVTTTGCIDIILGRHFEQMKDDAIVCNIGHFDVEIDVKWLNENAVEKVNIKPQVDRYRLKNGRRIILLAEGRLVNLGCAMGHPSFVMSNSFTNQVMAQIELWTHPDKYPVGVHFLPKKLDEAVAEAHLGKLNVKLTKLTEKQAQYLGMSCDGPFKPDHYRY

Structure (SMILES): Nc1nccc2c1ncn2C/C=C\CO
- IC50 (Adenosylhomocysteinase [1]): Not Active
- IC50 (Adenosylhomocysteinase [2]): 200 µM
- IC50 (Vaccinia virus): 300 µM

Structure (SMILES): Nc1ncnc2c1ncn2C/C=C/CO
- IC50 (Adenosylhomocysteinase [1]): Not Active
- IC50 (Adenosylhomocysteinase [2]): 230 µM
- IC50 (Vaccinia virus): 109 µM

Structure (SMILES): Nc1ncnc2c1ncn2[C@@H]1C=C(CO)[C@@H](O)[C@H]1O [NEOPLANOCIN A]
- IC50 (Adenosylhomocysteinase [1]): Not Active
- IC50 (Adenosylhomocysteinase [2]): 0.05 µM
- IC50 (Vaccinia virus): 0.08 µM

Structure (SMILES): Nc1nccc2c1ncn2C/C=C\[C@@H](O)CO
- IC50 (Adenosylhomocysteinase [1]): Not Active
- IC50 (Adenosylhomocysteinase [2]): 61 µM
- IC50 (Vaccinia virus): 70 µM

Structure (SMILES): C/C(=C\Cn1cnc2c(N)ncnc21)CO
- IC50 (Adenosylhomocysteinase [1]): Not Active
- IC50 (Vaccinia virus): 300 µM

Structure (SMILES): Nc1nccc2c1ncn2CC#CCO
- IC50 (Adenosylhomocysteinase [1]): Not Active
- IC50 (Adenosylhomocysteinase [2]): 200 µM
- IC50 (Vaccinia virus): 300 µM

Structure (SMILES): Nc1ncnc2c1ncn2C/C=C/C(O)CO (configuration not stated)
- Ki (Adenosylhomocysteinase [3]): Not Active
- IC50 (Vaccinia virus): 250 µM

Structure (SMILES): Nc1ncnc2c1ncn2CC=C(CO)CO
- IC50 (Adenosylhomocysteinase [1]): Not Active
- IC50 (Adenosylhomocysteinase [2]): 65 µM
- IC50 (Vaccinia virus): 700 µM

Structure (SMILES): Nc1ncnc2c1ncn2C/C=C\CO
- IC50 (Adenosylhomocysteinase [1]): Not Active
- IC50 (Adenosylhomocysteinase [2]): 145 µM
- IC50 (Vaccinia virus): 108 µM

Structure (SMILES): CC(C)=CCn1cnc2c(N)ncnc21
- Ki (Adenosylhomocysteinase [3]): Not Active
- IC50 (Vaccinia virus): 60 µM

Structure (SMILES): Nc1nccc2c1ncn2C/C=C/CO
- Ki (Adenosylhomocysteinase [3]): Not Active
- IC50 (Vaccinia virus): 40 µM

Structure (SMILES): Nc1nccc2c1ncn2CC=C(CO)CO
- IC50 (Adenosylhomocysteinase [1]): Not Active
- IC50 (Adenosylhomocysteinase [2]): 110 µM
- IC50 (Vaccinia virus): 500 µM

Structure (SMILES): Nc1ncnc2c1ncn2C/C=C\[C@@H](O)CO
- IC50 (Adenosylhomocysteinase [1]): Not Active
- IC50 (Adenosylhomocysteinase [2]): 100 µM
- IC50 (Vaccinia virus): 100 µM

Structure (SMILES): Nc1ncnc2c1ncn2C/C=C(/CO)[C@@H](O)CO.Nc1ncnc2c1ncn2C/C=C(\CO)[C@@H](O)CO
- IC50 (Adenosylhomocysteinase [1]): Not Active
- IC50 (Vaccinia virus): 170 µM

Structure (SMILES): Nc1ncnc2c1ncn2CC#CCO
- Ki (Adenosylhomocysteinase [3]): Not Active
- IC50 (Vaccinia virus): > 320 µM

Structure (SMILES): C/C(=C/Cn1cnc2c(N)ncnc21)CO
- IC50 (Adenosylhomocysteinase [1]): Not Active
- IC50 (Adenosylhomocysteinase [2]): 200 µM
- IC50 (Vaccinia virus): 220 µM
